Measurements: patent US20240076297A1, “ADENOSINE A2A AND A2B RECEPTOR DUAL ANTAGONISTS FOR IMMUNO-ONCOLOGY” (Merck Sharp & Dohme LLC, priority 2020, published 2024)

Each compound was assayed against human A2A adenosine receptor (Homo sapiens (Human), UniProt P29274) (assay: A2A binding affinity using SPA, Method (B)). Conditions: [3H] SCH58261, A2A receptor-expressing membranes.
Text: Method (A) describes the procedure used to measure A2A binding affinity using radioligand binding. Method (B) describes the procedure used to measure A2A binding affinity using SPA technology. The method used to measure A2B binding affinity is also described below. The method used to determine the A2A IC50 value reported for each compound in the table is indicated next to the reported value. The A2B IC50 value measured using the A2B binding affinity assay is shown in the table next to the compound under the corresponding A2A value.
The A2A receptor affinity binding assay measured the amount of binding of a tritiated ligand with high affinity for the A2A adenosine receptor to membranes made from HEK293 or CHO cells recombinantly expressing the human A2A adenosine receptor, in the presence of varying concentrations of a compound of the invention. The data were generated using either filtration binding or a homogenous scintillation proximity assay (SPA).
Method (B): Measurement of A2A Binding Affinity Using SPA
Binding affinity using SPA was conducted as follows. Test compounds (50 nL) were dispensed into individual wells of a 384-well OptiPlate™ well (Perkin Elmer) by Echo® acoustic liquid transfer (Labcyte). 20 μL of 1.25 nM [^3H] SCH58261 ((7-(2-phenylethyl)-5-amino-2-(2-furyl)-pyrazolo-[4,3-e]-1,2,4-triazolo[1,5-c]pyrimidine)) in DPBS assay buffer (Dulbecco's phosphate buffered saline without calcium and magnesium, ThermoFisher Scientific, Cat. No. A1285601) supplemented with 10 mM MgCl2 was added. A2A receptor-expressing membranes were incubated with 20 μg/mL adenosine deaminase (Roche, Cat. No. 10 102 105 001) for 15 min at room temperature. The receptor-expressing membranes were then combined with wheat germ agglutinin-coated yttrium silicate SPA beads (GE Healthcare, Cat. No. RPNQ0023) in a ratio of 1:1000 (w/w) and incubated for 30 min at room temperature. 30 μL of the membrane/bead mixture (0.25 μg and 25 μg per well respectively) were added to the 384-well OptiPlate™ well. To define total and non-specific binding, wells containing 1% DMSO or 1 μM CGS15943 (Tocris Bioscience, Cat. No. 1699) respectively were also included in the experiment. The plate was incubated for 1 h at room temperature with agitation. The assay plate was then incubated for an h to allow the beads to settle before data were collected using a TopCount® (Perkin Elmer) scintillation counter. After normalization to total and non-specific binding, the percent effect at each compound concentration was calculated. The plot of percent effect versus the log of compound concentration was analyzed electronically using a 4-parameter logistic fit based on the Levenberg-Marquardt algorithm to generate IC50 values.

Chain of human A2A adenosine receptor (P29274 whole entry): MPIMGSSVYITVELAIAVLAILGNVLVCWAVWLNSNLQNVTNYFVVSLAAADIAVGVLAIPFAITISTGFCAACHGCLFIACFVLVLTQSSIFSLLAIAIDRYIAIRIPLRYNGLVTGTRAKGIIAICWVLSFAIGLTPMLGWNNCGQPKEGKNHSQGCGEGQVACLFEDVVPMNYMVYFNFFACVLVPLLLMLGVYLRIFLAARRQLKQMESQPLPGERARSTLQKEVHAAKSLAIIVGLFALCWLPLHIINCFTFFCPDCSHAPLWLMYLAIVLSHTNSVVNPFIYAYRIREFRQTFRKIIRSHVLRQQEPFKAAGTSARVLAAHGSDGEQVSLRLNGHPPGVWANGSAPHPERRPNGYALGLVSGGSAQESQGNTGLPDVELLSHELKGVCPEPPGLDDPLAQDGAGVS

Q: `COc1cccc2c1nc(N)n1nc(CCCCl)nc21` [Example 1.1, 2-(3-chloropropyl)-7-methoxy-[1,2,4]triazolo[1,5-c]quinazolin-5-amine] was tested. Which IC50 did it give?
A: Its IC50 is 15.5 nM.

Q: How did the IC50 turn out when `COc1cccc2c1nc(N)n1nc(CCCSc3ccc(C(F)(F)F)cc3)nc21` [Example 1.2, 7-methoxy-2-(3-((4-(trifluoromethyl)phenyl)thio)propyl)-[1,2,4]triazolo[1,5-c]quinazolin-5-amine] was run?
A: The IC50 was 8.4 nM.

Q: For `COc1cccc2c1nc(N)n1nc(CSCc3ccc(F)cc3)nc21` [Example 1.3, 2-(((4-fluorobenzyl)thio)methyl)-7-methoxy-[1,2,4]triazolo[1,5-c]quinazolin-5-amine], which IC50 is on record?
A: Its IC50 is 7.3 nM.

Q: How did the IC50 turn out when `CCOCc1nc2c3cccc(OC)c3nc(N)n2n1` [Example 4.2, 2-(ethoxymethyl)-7-methoxy-[1,2,4]triazolo[1,5-c]quinazolin-5-amine] was run?
A: The IC50 was 8.7 nM.

Q: Which IC50 does the source give for `COc1cccc2c1nc(N)n1nc(COCc3ccsc3)nc21` [Example 4.3, 7-methoxy-2-((thiophen-3-ylmethoxy)methyl)-[1,2,4]triazolo[1,5-c]quinazolin-5-amine] here?
A: Its IC50 is 2.7 nM.

Q: `COc1cccc2c1nc(N)n1nc(COCc3ccc(F)cc3)nc21` [Example 4.4, 2-(((4-fluorobenzyl)oxy)methyl)-7-methoxy-[1,2,4]triazolo[1,5-c]quinazolin-5-amine] was tested. Which IC50 did it give?
A: Its IC50 is 4.7 nM.

Q: Which IC50 does the source give for `COc1cccc2c1nc(N)n1nc(COCc3c(C)ccnc3C)nc21` [Example 4.5, 2-(((2,4-dimethylpyridin-3-yl)methoxy)methyl)-7-methoxy-[1,2,4]triazolo[1,5-c]quinazolin-5-amine] here?
A: The IC50 was 8.7 nM.

Q: `COc1cccc2c1nc(N)n1nc(CO[C@H](C)c3ccc(F)cc3)nc21` [Example 4.6, (R)-2-((1-(4-fluorophenyl)ethoxy)methyl)-7-methoxy-[1,2,4]triazolo[1,5-c]quinazolin-5-amine] was tested. Which IC50 did it give?
A: The IC50 was 8.3 nM.

Q: For `COc1cccc2c1nc(N)n1nc(CO[C@@H](C)c3ccc(F)cc3)nc21` [Example 4.7, (S)-2-((1-(4-fluorophenyl)ethoxy)methyl)-7-methoxy-[1,2,4]triazolo[1,5-c]quinazolin-5-amine], which IC50 is on record?
A: The IC50 was 4.6 nM.

Q: How did the IC50 turn out when `COc1cccc2c1nc(N)n1nc(COCc3csc4ccccc34)nc21` [Example 4.8, 2-((benzo[b]thiophen-3-ylmethoxy)methyl)-7-methoxy-[1,2,4]triazolo[1,5-c]quinazolin-5-amine] was run?
A: Its IC50 is 2.9 nM.

Q: With `CCC#CCOCc1nc2c3cccc(OC)c3nc(N)n2n1` [Example 4.9, 7-methoxy-2-((pent-2-yn-1-yloxy)methyl)-[1,2,4]triazolo[1,5-c]quinazolin-5-amine] as the compound, how does the IC50 read?
A: Its IC50 is 6.1 nM.

Q: `COc1cccc2c1nc(N)n1nc(COCC(F)F)nc21` [Example 4.10, 2-((2,2-difluoroethoxy)methyl)-7-methoxy-[1,2,4]triazolo[1,5-c]quinazolin-5-amine] was tested. Which IC50 did it give?
A: Its IC50 is 4.4 nM.

Q: Which IC50 does the source give for `COc1cccc2c1nc(N)n1nc(COCC(F)(F)F)nc21` [Example 4.11, 7-methoxy-2-((2,2,2-trifluoroethoxy)methyl)-[1,2,4]triazolo[1,5-c]quinazolin-5-amine] here?
A: The IC50 was 3.5 nM.

Q: For `COc1cccc2c1nc(N)n1nc(COCCF)nc21` [Example 4.12, 2-((2-fluoroethoxy)methyl)-7-methoxy-[1,2,4]triazolo[1,5-c]quinazolin-5-amine], which IC50 is on record?
A: The IC50 was 7.2 nM.

Q: For `COc1cccc2c1nc(N)n1nc(COC(C)C)nc21` [Example 4.13, 2-(isopropoxymethyl)-7-methoxy-[1,2,4]triazolo[1,5-c]quinazolin-5-amine], which IC50 is on record?
A: Its IC50 is 5.7 nM.
